Results on 6 compounds are retold here after ChEMBL document CHEMBL3997835, “Isoquinoline alkaloids from Coptis japonica stimulate the myoblast differentiation via p38 MAP-kinase and Akt signaling pathway” (Bioorg Med Chem Lett, 2017).

Active and inactive are the calls of the source. The rule behind the calls is not given here.

Data set [1] has as its system C2C12. Briefly: Induction of myoblast differentiation in mouse C2C12 cells expressing MyoD-responsive 4RTK-Luc assessed as increase in MHC protein expression at 10 nM after 2 days by Western blot analysis. Type of data set: functional, cell-based. A general note: Immunoblotting shows a protein as a band on a membrane.
Data set [2] deals with C2C12. In words: Induction of MyoD transcriptional activity in mouse C2C12 cells expressing MyoD-responsive 4RTK-Luc at 10 nM after 24 hrs by luciferase reporter gene assay. Type of data set: functional, cell-based.
Data set [3] relates to C2C12. Briefly: Cytotoxicity against mouse C2C12 cells at 10 nM up to 24 hrs. As to conditions: c2c12, 24 h, 0.01 µM. Type of data set: cell-based.
Data set [4] deals with MAP kinase p38 (Mus musculus) (UniProt P47811+O08911+Q9WUI1+Q9Z1B7). Briefly: Induction of p38 MAPK phosphorylation in mouse C2C12 cells at 0.1 nM after 2 days by Western blot analysis relative to control. The data set is classed as cell-based.
Data set [5] addresses RAC-alpha serine/threonine-protein kinase (Mus musculus) (UniProt P31750). In words: Induction of Akt phosphorylation in mouse C2C12 cells up to 10 nM after 2 days by Western blot analysis. Type of data set: cell-based.
Data set [6] concerns C2C12. Briefly: Induction of myoblast differentiation in mouse C2C12 cells assessed as increase in MHC protein expression after 2 days by Western blot analysis. The data set is classed as functional, cell-based.
For data set [7], the system named is C2C12. In words: Induction of myoblast differentiation in mouse C2C12 cells assessed as increase in MHC expression after 2 days by DAPI staining based immunofluorescence assay. The data set is classed as functional, cell-based.
Data set [8] deals with C2C12. In words: Induction of myoblast differentiation in mouse C2C12 cells assessed as increase in MyoD protein expression after 2 days by Western blot analysis. The data set is classed as functional, cell-based.
Data set [9] deals with C2C12. In words: Induction of myoblast differentiation in mouse C2C12 cells assessed as cylinder shaped multinucleated myotubes after 2 days by DAPI staining based immunofluorescence assay. The data set is classed as functional, cell-based.

Chain of RAC-alpha serine/threonine-protein kinase (Mus musculus) (P31750 whole entry): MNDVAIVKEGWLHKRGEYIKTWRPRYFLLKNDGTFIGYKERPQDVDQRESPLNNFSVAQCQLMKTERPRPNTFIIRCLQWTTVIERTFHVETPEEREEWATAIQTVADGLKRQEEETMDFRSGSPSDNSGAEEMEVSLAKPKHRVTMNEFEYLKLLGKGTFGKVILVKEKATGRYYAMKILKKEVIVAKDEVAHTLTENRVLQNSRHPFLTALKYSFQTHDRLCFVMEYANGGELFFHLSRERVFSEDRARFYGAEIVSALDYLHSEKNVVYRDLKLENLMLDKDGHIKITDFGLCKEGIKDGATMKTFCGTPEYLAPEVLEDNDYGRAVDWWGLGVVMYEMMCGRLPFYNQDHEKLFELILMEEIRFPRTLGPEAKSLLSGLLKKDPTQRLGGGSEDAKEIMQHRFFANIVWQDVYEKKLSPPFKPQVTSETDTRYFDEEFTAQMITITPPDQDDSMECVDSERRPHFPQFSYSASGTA

As for `COc1cc2c(cc1OC)-c1cc3ccc4c(c3c[n+]1CC2)OCO4`, the outcome in data set [1] and in data set [2] was Active. The Activity result in data set [3] is “Non-Toxic”.

Take `OC1c2c(ccc3c2OCO3)C=C2c3cc4c(cc3CCN21)OCO4` (centres undefined): the result in [1] and in data set [2] was Active. Besides, the Activity entry in data set [3] is recorded as “Non-Toxic”.

Turning to `COc1ccc2cc3[n+](cc2c1OC)CCc1cc2c(cc1-3)OCO2` [BERBERINE], the result in data set [1] and in [2] was Active. For the same compound, the Activity entry in [3] was “Non-Toxic”.

With `COc1cc2c(cc1O)CC[n+]1cc3c(OC)c(OC)ccc3cc1-2` [JATRORRHIZINE], the outcome in data set [1] and in data set [2] was Active. In [3], the Activity entry was “Non-Toxic”.

In data set [4], `COc1ccc2c(c1O)-c1c(O)c(OC)cc3c1[C@H](C2)[N+](C)(C)CC3` [MAGNOFLORINE] gave a fold change (FC) of 6. The result in data set [1], in data set [2] and in data set [5] was Active. The Activity entry was “Dose-dependent effect” in [6]; “Dose-dependent effect” in data set [7]; “Dose-dependent effect” in data set [8]; “Dose-dependent effect” in data set [9]; “Non-Toxic” in [3].

On to `COc1cc2c(cc1OC)-c1cc3ccc(OC)c(OC)c3c[n+]1CC2` [PALMITINE], for which the outcome in data set [1] and in data set [2] was Active. In data set [3], the Activity result was “Non-Toxic”.
